# Source: patent US20260131007A1, “Mannose 6-Phosphate Receptor Binding Compounds for the Degradation of Extracellular Proteins” (Avilar Therapeutics, Inc., priority 2023, published 2026)
# Bridge positions count the residues as written; N and C are the ends. Square brackets hold non-standard residues; d marks the D form.
# B1: Compound 6 (peptide)
# peptide: cyclo(ELVWCT[dP]PDCAWHLG)
# modifications: disulfide 5-10; not fully specified (residue 8); also: one triazole-linked (2-(6-(but-3-yn-1-yloxy)-3,4,5-trihydroxytetrahydro-2H-pyran-2-yl)ethyl)phosphonic acid group on the PEG8 linker
# B2: Compound 11 (peptide)
# peptide: cyclo(ELVWCT[dP]PDCAWHLG)
# modifications: disulfide 5-10; not fully specified (residue 8); also: one triazole-linked A77 group on the PEG8 linker
# B3: Compound 10 (peptide)
# peptide: cyclo(ELVWCT[dP]PDCAWHLG)
# modifications: disulfide 5-10; not fully specified (residue 8); also: trivalent linker structure not given here
# B4: Compound 1 (peptide)
# peptide: cyclo(ELVWCT[dP]PDCAWHLG)
# modifications: disulfide 5-10; not fully specified (residue 8); also: trivalent linker structure not given here
# B5: Compound 9 (peptide)
# peptide: cyclo(ELVWCT[dP]PDCAWHLG)
# modifications: disulfide 5-10; not fully specified (residue 8); also: branched PEG linker structure not given here
# Target: T1, Insulin-like growth factor 2 receptor (IGF-1IR, cation-independent mannose-6-phosphate receptor, CI-MPR; hIGF-IIR) (Homo sapiens, UniProt P11717)
# T1 construct: purchased R&D Systems 6418-GR
# Test: HTRF-based ternary complex inhibition assay for relative affinity of IGF-IIR ligands
# Details: competition with MTAC probe for His-tagged hIGF-IIR; biotinylated IgG1; apparent binding affinity; read-out: TCF INH (HTRF) IC50
# Description: The apparent binding affinity of Insulin-like growth factor 2 receptor (IGF-1IR, also called the cation- independent mannose-6-phosphate receptor (CI-MPR)) ligands was determined indirectly by competing with a probe molecule for binding to IGF-1IR. The probe is a Mannose 6-Phosphate Ligand (“Ligand”) and binds to hIGF-IIR and IgG1 to form a hIGF-IIR: Ligand: IgG1 ternary complex. The ternary complex was detected by an HTRF readout. The ternary complex is disrupted in the presence of IGF-1IR ligand, resulting in decreased HTRF signal. IGF-1IR ligands of 3-fold dilution series were prepared from 10 mM DMSO stock on a 384-well LDV microplate using Echo Acoustic Liquid Handler (Beckman Coulter Life Sciences) followed by transfer of 600 nL of the solutions to an OptiPlate 384-well microplate (PerkinElmer, 6007290). Manose-6-phosphate (M6P; J&K, 530168) and glucose-6-phosphate (G6P; Sigma, V900924) were prepared from 100 mM stock in the same manner and were used as positive and negative controls, respectively. The wells used as 0% and 100% inhibition controls were prepared by adding 600 nL DMSO. 20 nL of 50 μM MTAC probe was transferred to all wells except the wells used as 100% Inhibition control. 9.4 μL working solution containing 65.1 nM of Biotinylated-IgG1 (Viva 20211108) and 65.1 nM of His-tagged hIGF-IIR (R&D Systems, 6418-GR) in assay buffer 50 mM Tris, pH 7.5, 150 mM NaCl, 50 mM CaCl2, 0.01% Tween-20 was transferred to all wells. The plate was incubated at room temperature for 60 min with gentle shaking to allow molecular interaction to reach equilibration. Following this, 10 μL of HTRF detection solution containing 15 nM Streptavidin-d2 (PerkinElmer, 610SADLA) and 0.7 nM MAb Anti 6HIS—Tb cryptate (PerkinElmer, 61HISTLA) in PPI Terbium detection buffer (PerkinElmer, 61DB10RDF) was added. The assay plate was incubated at room temperature with gentle shaking for 60 min to allow HTRF signal to develop. The plate was gently spun on a centrifuge then placed on a EnVision plate reader (Perkin Elmer, EnVision 2104) to read fluorescence ratio of 665 nm/615 nm. Percent inhibitions were calculated with this equation: % I=100* [1−(X−100% I/(0% I−100% I)] where X is the […] in the presence of IGF-1IR ligand. The apparent binding affinity (presented as IC50) was calculated by fitting the % inhibition data with a non-linear 4-parameter inhibition equation using GraphPad Prism (GraphPad Software, LLC; version 9.4.1).
row,Molecule,IC50 [µM]
1,"CC(C)(C)OC(=O)N1CCC(n2cc([C@H]3O[C@H](CCP(=O)(O)O)[C@@H](O)[C@H](O)[C@@H]3O)nn2)CC1 [Compound A85, (2-((2R,3S,4S,5S,6R)-6-(1-(1-(tert-butoxycarbonyl)piperidin-4-yl)-1H-1,2,3-triazol-4-yl)-3,4,5-trihydroxytetrahydro-2H-pyran-2-yl)ethyl)phosphonic acid]",< 10
2,"O=P(O)(O)CC[C@H]1O[C@H](c2cn(C3CCNCC3)nn2)[C@@H](O)[C@@H](O)[C@@H]1O [Compound A86, (2-((2R,3S,4S,5S,6R)-3,4,5-trihydroxy-6-(1-(piperidin-4-yl)-1H-1,2,3-triazol-4-yl)tetrahydro-2H-pyran-2-yl)ethyl)phosphonic acid]",< 10

# Target: Biotinylated-IgG1 (Viva 20211108)
# Test: HTRF ternary complex formation: compound titrated into 60 nM biotinylated IgG1 + 60 nM His-tagged hIGF-IIR (R&D 6418-GR); grade read by the legend '<50 nM = ***'
# Details: not given
row,Molecule,EC50 [nM]
1,B1,< 50
2,B2,< 50
3,B3,< 50
4,B4,< 50
5,B5,< 50

# Target: T2, hIGF-IIR and IgG1 (ternary complex) (Homo sapiens, UniProt P01857+P11717)
# T2 construct: purchased R&D Systems 6418-GR
# Test: HTRF-based ternary complex formation assay for hIGF-IIR targeting Extracellular Protein Degraders
# Type: binding
# Details: not given
# Description: The ternary complex formation assay is designed to identify and determine the potency of Extracellular Protein Degrader molecules which can induce the formation of ternary complex between the Extracellular Protein Degrader hIGF-IIR. Titrating Extracellular Protein Degrader to fixed amount of hIGF-IIR results in a bell-shaped curve (except molecules whose binary complex affinity between Extracellular Protein Degrader and hIGF-IIR). The peak mean represents Extracellular Protein Degrader concentration at which maximum ternary complex is formed. Too much or too little Extracellular Protein Degrader leads to decreased ternary complex formation due to formation of binary complex (Hook effect). Dose response of Extracellular Protein Degrader compounds (16-point 3-fold dilution series, 100X) were prepared by Echo Acoustic Liquid Handler (Beckman Coulter Life Sciences) using 384-well LDV microplate. Then 200 nL of the solutions were transferred to an OptiPlate 384-well microplate (PerkinElmer, 6007290). To the assay plate, 10 μL working solution containing 60 nM of Biotinylated-IgG1 (Viva 20211108) and 60 nM of His-tagged hIGF-IIR (R&D Systems, 6418-GR) in assay buffer 50 mM Tris, pH 7.5, 150 mM NaCl, 50 mM CaCl2, 0.01% Tween-20 were added. The plate was incubated for 60 min at room temperature with gentle shaking to allow molecular interaction to reach equilibration. Following this, 10 μL of HTRF detection solution containing 15 nM Streptavidin-d2 (PerkinElmer, 610SADLA) and 0.7 nM MAb Anti 6HIS—Tb cryptate (PerkinElmer, 61HISTLA) in PPI Terbium detection buffer (PerkinElmer, 61DB10RDF) were added. The assay plate was incubated at room temperature with gentle shaking for 60 min to allow HTRF signal to develop. The plate was gently spun on a centrifuge then placed on an EnVision plate reader (Perkin Elmer, EnVision 2104) to read fluorescence ratio of 665 nm/615 nm. Data were analyzed by fitting with Bell-shaped non-linear regression model using GraphPad Prism (GraphPad Software, LLC; version 9.4.1). Mean fluorescence intensity is graphed versus compound concentration and the EC50 for TCF is calculated from the inflection point of the curve (GraphPad).
row,Molecule,EC50 [nM]
1,COc1ccc(OC2O[C@H](CCP(=O)(O)Cc3cccc(OCc4cn(CCOCCNC(=O)CCOCC(COCCC(=O)NCCOCCn5cc(COc6cccc(CP(=O)(O)CC[C@@H]7OC(Oc8ccc(OC)cc8)[C@H](O)[C@H](O)[C@H]7O)c6)nn5)(COCCC(=O)NCCOCCn5cc(COc6cccc(CP(=O)(O)CC[C@@H]7OC(Oc8ccc(OC)cc8)[C@H](O)[C@H](O)[C@H]7O)c6)nn5)NC(=O)COCCOCCOCC(=O)N[C@H]5C[C@H]6C(=O)N[C@@H](CC(=O)O)C(=O)N[C@H]7CSSC[C@H](NC(=O)[C@H](Cc8c[nH]c9ccccc89)NC(=O)[C@H](C(C)C)NC(=O)[C@H](CC(C)C)NC(=O)[C@H](CCC(=O)O)NC(=O)CNC(=O)[C@H](CC(C)C)NC(=O)[C@H](Cc8cnc[nH]8)NC(=O)[C@H](Cc8c[nH]c9ccccc89)NC(=O)[C@H](C)NC7=O)C(=O)N[C@@H]([C@@H](C)O)C(=O)N7CCC[C@@H]7C(=O)N6C5)nn4)c3)[C@@H](O)[C@H](O)[C@@H]2O)cc1 (stereo partly drawn) [Compound 1],< 50
2,CC(C)C[C@@H]1NC(=O)[C@H](Cc2cnc[nH]2)NC(=O)[C@H](Cc2c[nH]c3ccccc23)NC(=O)[C@H](C)NC(=O)[C@@H]2CSSC[C@H](NC(=O)[C@H](Cc3c[nH]c4ccccc34)CC(=O)[C@H](C(C)C)NC(=O)[C@H](CC(C)C)NC(=O)[C@H](CCC(=O)O)NC(=O)CNC1=O)C(=O)N[C@@H]([C@@H](C)O)C(=O)N1CCC[C@@H]1C(=O)N1C[C@@H](NC(=O)CCOCCOCCOCCN(CCOCCOCCOCCn3cc(CCO[C@H]4O[C@H](CCP(=O)(O)O)[C@@H](O)[C@H](O)[C@@H]4O)nn3)CCOCCOCCOCCn3cc(CCO[C@H]4O[C@H](CCP(=O)(O)O)[C@@H](O)[C@H](O)[C@@H]4O)nn3)C[C@H]1C(=O)N[C@@H](CC(=O)O)C(=O)N2 [Compound 9],< 50
3,COc1ccc(OC2O[C@H](CCP(=O)(O)Cc3cn(CCOCCNC(=O)CCOCC(COCCC(=O)NCCOCCn4cc(CP(=O)(O)CC[C@@H]5OC(Oc6ccc(OC)cc6)[C@H](O)[C@H](O)[C@H]5O)nn4)(COCCC(=O)NCCOCCn4cc(CP(=O)(O)CC[C@H]5OC(Oc6ccc(OC)cc6)[C@@H](O)[C@@H](O)[C@@H]5O)nn4)NC(=O)COCCOCCOCC(=O)N[C@H]4C[C@H]5C(=O)N[C@@H](CC(=O)O)C(=O)N[C@H]6CSSC[C@H](NC(=O)[C@H](Cc7c[nH]c8ccccc78)NC(=O)[C@H](C(C)C)NC(=O)[C@H](CC(C)C)NC(=O)[C@H](CCC(=O)O)NC(=O)CNC(=O)[C@H](CC(C)C)NC(=O)[C@H](Cc7c[nH]cn7)NC(=O)[C@H](Cc7c[nH]c8ccccc78)NC(=O)[C@H](C)NC6=O)C(=O)N[C@@H]([C@@H](C)O)C(=O)N6CCC[C@@H]6C(=O)N5C4)nn3)[C@@H](O)[C@H](O)[C@@H]2O)cc1 (stereo partly drawn) [Compound 10],< 50

# Same assay, conditions: biotinylated IgG1 and His-tagged hIGF-IIR, 60 nM each; read-out: TCF (HTRF) EC50
row,Molecule,EC50 [nM]
1,CC(C)C[C@@H]1NC(=O)[C@H](Cc2c[nH]cn2)NC(=O)[C@H](Cc2c[nH]c3ccccc23)NC(=O)[C@H](C)NC(=O)[C@@H]2CSSC[C@H](NC(=O)[C@H](Cc3c[nH]c4ccccc34)NC(=O)[C@H](C(C)C)NC(=O)[C@H](CC(C)C)NC(=O)[C@H](CCC(=O)O)NC(=O)CNC1=O)C(=O)N[C@@H]([C@@H](C)O)C(=O)N1CCC[C@@H]1C(=O)N1C[C@@H](NC(=O)CCOCCOCCOCCOCCOCCOCCOCCOCCn3cc(CCO[C@H]4O[C@H](CCP(=O)(O)O)[C@@H](O)[C@H](O)[C@@H]4O)nn3)C[C@H]1C(=O)N[C@@H](CC(=O)O)C(=O)N2 [Compound 6],< 50
2,COc1ccc(OC2O[C@H](CCP(=O)(O)Cc3cn(CCOCCOCCOCCOCCOCCOCCOCCOCCC(=O)N[C@H]4C[C@H]5C(=O)N[C@@H](CC(=O)O)C(=O)N[C@H]6CSSC[C@H](NC(=O)[C@H](Cc7c[nH]c8ccccc78)NC(=O)[C@@H](C(C)C)NC(=O)[C@@H](CC(C)C)NC(=O)[C@H](CCC(=O)O)NC(=O)CNC(=O)[C@@H](CC(C)C)NC(=O)[C@H](Cc7cnc[nH]7)NC(=O)[C@H](Cc7c[nH]c8ccccc78)NC(=O)[C@H](C)NC6=O)C(=O)N[C@H]([C@@H](C)O)C(=O)N6CCC[C@@H]6C(=O)N5C4)nn3)[C@@H](O)[C@H](O)[C@@H]2O)cc1 (stereo partly drawn) [Compound 11],< 50
